Results from patent US20050261472A1, “Binding moieties for fibrin” (Dyax Corp., priority 1999, published 2005).
Bridge positions count the residues as written; N and C are the ends. Peptide text beside a SMILES is read from it.

Legend:
dried fibrin = biological target: T1, dried fibrin (Homo sapiens, UniProt P02671+P02675+P02679); test: dissociation constant against dried fibrin (free peptide by mass spectrometry); type: binding
T1 construct: Thrombin cleavage at the Arg16-Arg17 bond in the Ax chains and at the Arg14-Gly15 bond on the BP chains releases fibrinopeptides A and B; host or cells: fibrinogen solution clotted with thrombin in 96-well plates and dried at 37 C
T1 sequence (P02671 36-629 limits assumed): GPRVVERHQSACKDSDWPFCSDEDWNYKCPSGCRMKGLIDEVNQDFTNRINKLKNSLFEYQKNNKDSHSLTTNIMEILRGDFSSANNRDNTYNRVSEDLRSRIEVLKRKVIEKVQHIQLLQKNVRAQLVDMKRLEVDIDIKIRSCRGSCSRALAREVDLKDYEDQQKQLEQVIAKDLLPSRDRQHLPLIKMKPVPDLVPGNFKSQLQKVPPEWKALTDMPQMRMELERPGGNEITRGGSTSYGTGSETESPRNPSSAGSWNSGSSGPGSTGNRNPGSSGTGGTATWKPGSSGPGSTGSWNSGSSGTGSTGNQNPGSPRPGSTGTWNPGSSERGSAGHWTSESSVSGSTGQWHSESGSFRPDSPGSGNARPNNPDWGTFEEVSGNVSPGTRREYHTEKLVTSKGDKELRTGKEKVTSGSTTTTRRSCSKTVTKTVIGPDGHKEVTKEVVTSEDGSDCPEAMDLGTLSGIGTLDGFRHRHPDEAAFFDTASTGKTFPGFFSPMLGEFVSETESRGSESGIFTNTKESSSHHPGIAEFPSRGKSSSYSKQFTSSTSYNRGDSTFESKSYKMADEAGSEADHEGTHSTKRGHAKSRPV
T1 sequence (P02675 45-491 limits assumed): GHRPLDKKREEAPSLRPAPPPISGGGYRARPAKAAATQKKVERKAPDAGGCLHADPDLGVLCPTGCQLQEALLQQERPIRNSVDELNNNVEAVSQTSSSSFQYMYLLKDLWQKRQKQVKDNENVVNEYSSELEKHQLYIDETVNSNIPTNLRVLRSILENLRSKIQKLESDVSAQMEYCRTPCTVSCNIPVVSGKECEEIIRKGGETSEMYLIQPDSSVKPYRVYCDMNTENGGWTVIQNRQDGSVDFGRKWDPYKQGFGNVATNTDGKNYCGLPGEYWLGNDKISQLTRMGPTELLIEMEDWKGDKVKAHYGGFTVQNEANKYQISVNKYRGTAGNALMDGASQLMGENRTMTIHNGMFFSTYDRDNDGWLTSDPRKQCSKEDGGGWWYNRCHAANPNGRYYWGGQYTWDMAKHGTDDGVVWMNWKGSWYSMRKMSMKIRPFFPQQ
T1 sequence (P02679 27-437 isoform P02679-2 limits assumed): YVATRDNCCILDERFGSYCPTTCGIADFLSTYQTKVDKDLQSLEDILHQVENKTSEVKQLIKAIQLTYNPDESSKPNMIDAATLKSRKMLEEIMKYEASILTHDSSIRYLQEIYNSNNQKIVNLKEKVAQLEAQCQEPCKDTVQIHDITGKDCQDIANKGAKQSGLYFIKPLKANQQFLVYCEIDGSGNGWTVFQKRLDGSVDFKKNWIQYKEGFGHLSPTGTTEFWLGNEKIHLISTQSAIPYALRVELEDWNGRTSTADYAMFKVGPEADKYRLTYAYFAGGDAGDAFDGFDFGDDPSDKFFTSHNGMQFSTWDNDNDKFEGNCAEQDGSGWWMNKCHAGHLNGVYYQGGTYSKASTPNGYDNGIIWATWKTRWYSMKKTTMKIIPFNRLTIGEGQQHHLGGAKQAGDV
Protocol: A fibrinogen solution was prepared at 10 mg/ml (or at twice the concentration of fibrin desired) in TBS buffer (50 mM Tris, 150 mM NaCl, pH 7.4). The fibrinogen solution typically contained ˜17 mM citrate. Subsequently, a solution was prepared containing 2 U/ml thrombin, 20 mM CaCl2, and 5 mM ε-aminocaproic acid in TBS. The fibrinogen solution and thrombin solution were mixed 1:1 in the wells of a 96-well plate, aliquoting 50 μL of each solution in each well (total volume=100 μL). The plates were evaporated to dryness overnight at 37° C. The polypeptide to be tested, dissolved in water, was added to each well at concentrations between 1-200 μM. A typical binding assay contained 24 points at concentrations of 2, 4, 6, 8, 10, 12, 14, 17, 20, 23, 26, 30, 35, 40, 45, 50, 60, 70, 80, 100, 125, 150, 175, and 200 μM. The plate containing the peptide and (rehydrated) dried fibrin was covered and incubated at 37° C. on a shaker table for 2 hours.
The supernatant in each well was removed by pipette and the concentration of the polypeptide was measured by mass spectrometry. The ion current detected at the mass of the peptide was monitored after injection of a sample into the mass spectrometer. The area-under-the-peak was quantitated and compared to standards of known concentration. The concentration of peptide in the supernatant is equal to the concentration of free peptide. The concentration of bound peptide was determined by subtracting the concentration of free peptide from the total (starting) concentration. A plot of [Bound Peptide] vs. [Free Peptide] was used to determine the Kd and the concentration of bound peptide at saturation. The curve was fit to the equation: [Bound]=N×[Free]/(Kd+[Free]) where [Bound] is the concentration of bound polypeptide, [Free] is the concentration of free polypeptide, Kd is the dissociation constant (equal to the reciprocal of Ka) and N is the concentration of binding sites. The number of binding sites per fibrin molecule was equal to the lo concentration of binding sites determined by the [Bound Polypeptide] vs. [Free Polypeptide] plot, divided by the concentration of fibrin (15 μM) used in the assay.

DD(E) = biological target: T2, DD(E) (Homo sapiens, UniProt P02671+P02675+P02679); test: dissociation constant against fibrin-derived polypeptide DD(E); type: binding; conditions: read-out: Kd DD(E)
T2 construct: host or cells: purchased fibrinogen clotted with thrombin, digested with plasmin, then purified by ammonium sulfate cuts and Sephacryl S200
Protocol: The soluble fibrin-derived polypeptide DD(E) was prepared following a modification of a published method (Moskoitz and Budzynksi, Biochemistry, 33: 12937-12944 (1994) and references therein). Fibrinogen containing a Factor XIII trace impurity (1 g, Grade L; purchased from American Diagnostica) was dissolved in TBS buffer and dialyzed overnight against TBS containing 5 mM citrate. The fibrinogen concentration was adjusted to 3.0 mg/ml and CaCl2 was added to a concentration of 10 mM. Clotting of the fibrinogen was initiated by the addition of thrombin to 0.5 U/ml and the clot was incubated for 3 hours at 37° C. The clot was cut up with a spatula to release water and to concentrate the clot. The clot pieces were washed twice with TBS.Ca buffer (TBS containing 2 mM CaCl2) and were centrifuged at 4,000×g to compact the clots between washes. The clot material was resuspended in 250 ml TBS containing 25 mM CaCl2 and 2 K.I.U. plasmin per mg fibrin. The clots were digested overnight at 20° C. Undigested clot was removed by pipette, and the supernatant was shaken with 10 ml of Lysine Sepharose (Pharmacia) for 30 minutes and filtered to remove the resin. Aprotinin was added to the filtrate to a concentration of 500 U/μL. Ammonium Sulfate was added to 30% saturation and the precipitated protein was removed by centrifugation. More ammonium sulfate was added to the supernatant to a final concentration of 50% saturation, and the precipitated protein was concentrated by centrifugation. The pellets, containing DD(E), were resuspended in a small volume of buffer (50 mM Tris, 150 mM NaCl, 2 mM CaCl2) (<10 ml) and chromatographed on a Sephacryl S200 (Pharmacia) size exclusion column (5×100 cm) in the same buffer. Fractions of protein eluted from the column were assayed by SDS-PAGE for DD(E). DD(E) contains subunits of 55 kD (Fragment E) and 190 kD (Fragment DD). […]
Dissociation constants were determined against DD(E) as described above.

Molecule | Kd (dried fibrin) [µM] | Kd (DD(E)) [µM]
CC(C)C[C@H](NC(=O)[C@@H]1CSSC[C@H](NC(=O)[C@@H]2CCCN2C(=O)[C@@H](N)CC(C)C)C(=O)N[C@@H](C)C(=O)N[C@@H](Cc2ccc(O)cc2)C(=O)N[C@@H](Cc2ccc(O)cc2)C(=O)NCC(=O)N[C@@H]([C@@H](C)O)C(=O)N1)C(=O)N[C@@H](CC(=O)O)C(N)=O [SEQ ID NO: 42, LPCAYYGTCLD] (H-LPCAYYGTCLD-NH2; disulfide 3-9) | 23 | 5.9
H-LPSDYYGTSLD-NH2 [compound 38] | > 100 | > 100
CC(C)C[C@H](NC(=O)[C@@H]1CSSC[C@H](NC(=O)[C@H](C)NC(=O)[C@@H](N)Cc2ccccc2)C(=O)N[C@@H](Cc2c[nH]cn2)C(=O)N[C@@H](Cc2ccc(O)cc2)C(=O)N[C@@H](Cc2ccc(O)cc2)C(=O)NCC(=O)N[C@@H]([C@@H](C)O)C(=O)N1)C(=O)N[C@@H](Cc1c[nH]cn1)C(N)=O [SEQ ID NO: 7, FACHYYGTCLH] (H-FACHYYGTCLH-NH2; disulfide 3-9) | 23 | 7.3
CC(C)C[C@H](NC(=O)[C@@H]1CSSC[C@H](NC(=O)[C@@H]2CCCN2C(=O)[C@@H](N)CC(C)C)C(=O)N[C@@H](CC(=O)O)C(=O)N[C@@H](Cc2ccc(O)cc2)C(=O)N[C@@H](Cc2ccc(O)cc2)C(=O)NCC(=O)N[C@@H](C)C(=O)N1)C(=O)N[C@@H](CC(=O)O)C(N)=O [SEQ ID NO: 46, LPCDYYGACLD] (H-LPCDYYGACLD-NH2; disulfide 3-9) | > 100 | > 100
CC(C)CC(N)C(=O)N1CCCC1C(=O)NC1CSSCC(C(=O)NC(CC(C)C)C(=O)NC(CC(=O)O)C(N)=O)NC(=O)C(C(C)O)NC(=O)CNC(=O)C(Cc2ccc(O)cc2)NC(=O)C(Cc2ccc(O)cc2)NC(=O)C(CC(=O)O)NC1=O (stereo not shown) [SEQ ID NO: 9, LPCDYYGTCLD] | 2.7 | 2.6
